Molecular target: T1, Human ATX protein (Homo sapiens, UniProt Q13822)
T1 construct: made in house
Experiment: ATX biochemical FRET assay with FS-3 substrate
Settings: FS-3 substrate 2 μM, ATX 1.0 μg/mL, 30 min preincubation, 2 hours at room temperature
Excerpt: ATX (Autotaxin) is a 125 KDa glycoprotein with lysophospholipase D (LPLD) activity that generates the bioactive lipid lysophosphatidic acid (LPA) from lysophosphatidylcholine (LPC). The ATX biochemical assay utilizes a FRET (fluorescence resonance energy transfer) technology platform. The fluorescence signal of FRET substrate FS-3 is quenched due to intra-molecular FRET of a fluorophore to a non-fluorescing quencher (Ferguson, C. G., et al., Org Lett. 2006 May 11; 8(10): 2023-2026, which is incorporated by reference in its entirety). ATX catalyzes the hydrolysis of the substrate which separates the dabsyl quencher from the fluorescein reporter, which becomes fluorescent. The reaction is monitored by a SpectraMax M5 (Molecular Devices, Sunnyvale, Calif.) with at excitation wavelength 485 nm and emission wavelength […].
Fatty acid free-BSA (Sigma A8806): 10 mg/mL in H2O, stored at 4° C.
2×ATX assay buffer: 100 mM Tris, 280 mM NaCl, 10 mM KCl, 2 mM CaCl2, 2 mM MgCl2, pH 7.4.
Human ATX protein: expressed and purified in house. Stored at −80° C.
Substrate FS-3 (Echelon, L-2000): 100 μg in 77.74.L H2O (1 mM stock), stored at −20° C.
384-well flat bottom plates—Corning #3575.
Compound dilution—All compounds were provided at 10 mM in 100% DMSO. In the first well, 2 μL of 10 mM compound was added to 78 μL of DMSO (1:40 dilution). In subsequent wells 3-fold dilution (total 10 dilutions) were performed.
1×ATX assay buffer was made up with a final concentration of 1 mg/mL fatty acid free-BSA using 2×ATX assay buffer, 10 mg/ml fatty acid free-BSA and ddH2O.
ATX protein was diluted with 1×ATX assay buffer to a concentration of 1.32 μg/mL (1.32×). 38 μL was added per well to the assay plate. The final concentration of ATX in the reaction as 1.0 μg/mL.
2 μL per well of compounds was transferred to provide the desired concentration. The plate was centrifuged, then incubated at room temperature for 30 minutes on the shaker.
FS-3 was diluted with 1×ATX assay buffer to a concentration of FS-3 of 10 μM (5×). Then, 10 μL was added per well to the assay plate. The final concentration of FS-3 in the reaction was 2 μM. The plate was centrifuged. The plate was kept shaking at room temperature for 2 hours. Because FS-3 substrate is light sensitive, plates were kept covered and protected from light.
Fluorescence was measured using SpectraMax M5 (excitation at 485 nm/emission at 538 nm, top read).

Row | SMILES | IC50
1 | CC[C@H]1CC[C@@H](Oc2ccc3cc(C(C)N4CCC[C@H](CC(=O)O)C4)ccc3c2C(F)(F)F)CC1 (stereo partly drawn) [Example 6, 2-((3R)-1-(1-(6-((cis-4-ethylcyclohexyl)oxy)-5-(trifluoromethyl)naphthalen-2-yl)ethyl)piperidin-3-yl)acetic acid] | ≤ 100 nM
2 | CC[C@H](c1ccc2c(C(F)(F)F)c(O[C@H]3CC[C@@H](C)CC3)ccc2c1)N1CCC[C@H](CC(=O)O)C1 [Example 60, 2-((3R)-1-((R)-1-(6-((cis-4-Methylcyclohexyl)oxy)-5-(trifluoromethyl)naphthalen-2-yl)propyl)piperidin-3-yl)acetic acid] | ≤ 100 nM
3 | CC1(C)C(NCc2ccc3c(C(F)(F)F)c(OC4CCC(C(F)(F)F)CC4)ccc3n2)CC1C(=O)O (stereo not drawn) [Example 87, 2,2-dimethyl-3-((((5-(trifluoromethyl)-6-(cis-4-(trifluoromethyl)cyclo-hexyl)oxy)quinolin-2-yl)methyl)amino)cyclobutanecarboxylic acid] | ≤ 500 nM
4 | CC[C@H]1CC[C@@H](Oc2ccc3cc(CN4CCC[C@H](CC(=O)O)C4)ccc3c2C(F)(F)F)CC1 [Example 84, 2-((R)-1-((2-(cis-4-(ethyl)cyclohexyloxy)-1-(trifluoromethyl)naphthalen-6-yl)methyl)piperidin-3-yl)acetic acid] | ≤ 100 nM
5 | CCC(c1ccc2c(C(F)(F)F)c(O[C@H]3CC[C@@H](C(F)(F)F)CC3)ccc2c1)N1CCC[C@@H](CC(=O)O)C1 (stereo partly drawn) [Example 89, 2-((S)-1-(1-(2-(cis-4-(trifluoromethyl)cyclohexyloxy)-1-(trifluoromethyl)naphthalen-6-yl)propyl)piperidin-3-yl)acetic acid] | ≤ 100 nM
6 | O=C(O)[C@H]1CC[C@H](CNCc2ccc3c(C(F)(F)F)c(O[C@H]4CC[C@@H](C(F)(F)F)CC4)ccc3c2)CC1 [Example 25, (trans)-4-(((5-(trifluoromethyl)-6-((cis)-4-(trifluoromethyl)cyclohexyloxy)naphthalen-2-yl)methylamino)methyl)cyclohexanecarboxylic acid] | ≤ 250 nM
7 | C[C@@H](c1ccc2c(C(F)(F)F)c(O[C@H]3CC[C@@H](C)CC3)ccc2c1)N1CCC[C@H](CC(=O)O)C1 [Example 95, 2-((3R)-1-((S)-1-(6-((cis-4-Methylcyclohexyl)oxy)-5-(trifluoromethyl)naphthalen-2-yl)ethyl)piperidin-3-yl)acetic acid] | ≤ 100 nM
8 | O=C(O)C1CCCN(Cc2ccc3c(C(F)(F)F)c(O[C@H]4CC[C@@H](C(F)(F)F)CC4)ccc3c2)CC1 (relative stereo) [Example 76, 1-((5-(trifluoromethyl)-6-((cis-4-(trifluoromethyl)cyclohexyl)oxy)-naphthalen-2-yl)methyl)azepane-4-carboxylic acid] | ≤ 500 nM
9 | CN(Cc1ccc2c(C(F)(F)F)c(O[C@H]3CC[C@@H](C(F)(F)F)CC3)ccc2c1)[C@H]1CC[C@@H](C(=O)O)CC1 [Example 79, N-methyl-cis-4-(((5-(trifluoromethyl)-6-(cis-4-(trifluoromethyl)cyclohexyloxy)naphthalene-2-yl)methyl)amino)cyclohexane-1-carboxylic acid] | ≤ 500 nM
10 | CC(C(=O)O)[C@H]1CCCN(Cc2ccc3c(C(F)(F)F)c(O[C@H]4CC[C@@H](C(F)(F)F)CC4)ccc3c2)C1 (mixture of isomers) [Example 102, (S)-2-((R)-1-((5-(trifluoromethyl)-6-((cis-4-(trifluoromethyl)cyclohexyl)oxy)naphthalen-2-yl)methyl)piperidin-3-yl)propanoic acid] | ≤ 250 nM
11 | CC1(C)C(NC(c2ccc3c(C(F)(F)F)c(O[C@H]4CC[C@@H](C)CC4)ccc3c2)C2CCCCC2)CC1C(=O)O (stereo partly shown) [Example 42] | ≤ 500 nM
12 | O=C(O)C[C@H]1CCCN(Cc2ccc3c(C(F)(F)F)c(OC4CCC(F)(F)CC4)ccc3c2)C1 [Example 4, (R)-2-(1-((6-((4,4-difluorocyclohexyl)oxy)-5-(trifluoromethyl)naphthalen-2-yl)methyl)piperidin-3-yl)acetic acid] | ≤ 500 nM
13 | O=C(O)C1CC(O)CN(Cc2ccc3c(C(F)(F)F)c(O[C@H]4CC[C@@H](C(F)(F)F)CC4)ccc3c2)C1 (relative stereo) [Example 81, 1-((5-(trifluoromethyl)-6-(cis-4-(trifluoromethyl)cyclohexyloxy)naphthalene-2-yl)methyl)-5-hydroxypiperidine-3-carboxylic acid] | ≤ 250 nM
14 | C[C@H](c1ccc2c(C(F)(F)F)c(O[C@H]3CC[C@@H](C)CC3)ccc2c1)N1CCC[C@H](CC(=O)O)C1 [Example 96, 2-((3R)-1-((R)-1-(6-((cis-4-Methylcyclohexyl)oxy)-5-(trifluoromethyl)naphthalen-2-yl)ethyl)piperidin-3-yl)acetic acid] | ≤ 100 nM
15 | O=C(O)C1CN(Cc2ccc3c(C(F)(F)F)c(O[C@H]4CC[C@@H](C(F)(F)F)CC4)ccc3c2)CCC1O (relative stereo) [Example 35, 4-hydroxy-1-((5-(trifluoromethyl)-6-((cis)-4-(trifluoromethyl)cyclohexyloxy)naphthalen-2-yl)methyl)piperidine-3-carboxylic acid] | ≤ 500 nM
16 | O=C(O)c1ccc(CNCc2ccc3c(C(F)(F)F)c(O[C@H]4CC[C@@H](C(F)(F)F)CC4)ccc3c2)nc1 [Example 69, 6-((((5-(trifluoromethyl)-6-((cis)-4-(trifluoromethyl)cyclohexyloxy)naphthalene-2-yl)methyl)amino)methyl)nicotinic acid] | ≤ 250 nM
17 | O=P(O)(O)CCCNCc1ccc2c(C(F)(F)F)c(O[C@H]3CC[C@@H](C(F)(F)F)CC3)ccc2c1 [Example 63, 3-(((5-(trifluoromethyl)-6-(cis-4-(trifluoromethyl)cyclohexyloxy)naphthalene-2-yl)methyl)amino)propylphosphonic acid] | ≤ 100 nM
18 | O=C(O)c1ccc(CNCc2ccc3c(C(F)(F)F)c(O[C@H]4CC[C@@H](C(F)(F)F)CC4)ccc3c2)cn1 [Example 75, 5-((((5-(trifluoromethyl)-6-((cis-4-(trifluoromethyl)cyclohexyl)oxy)-naphthalen-2-yl)methyl)amino)methyl)pyridine-2-carboxylic acid] | ≤ 250 nM
19 | CC[C@@H](c1ccc2c(C(F)(F)F)c(O[C@H]3CC[C@@H](C)CC3)ccc2c1)N1CCC[C@H](CC(=O)O)C1 [Example 59, 2-((3R)-1-((S)-1-(6-((cis-4-Methylcyclohexyl)oxy)-5-(trifluoromethyl)naphthalen-2-yl)propyl)piperidin-3-yl)acetic acid] | ≤ 100 nM
20 | CC1(C)C(NC(c2ccc3c(C(F)(F)F)c(O[C@H]4CC[C@@H](C(F)(F)F)CC4)ccc3c2)C2CC2)CC1C(=O)O (stereo partly shown) [Example 44] | ≤ 100 nM
21 | C[C@H]1CC[C@@H](Oc2ccc3cc(CN4CC(CC(=O)O)C4)ccc3c2C(F)(F)F)CC1 [Example 47, 1-((5-trifluoromethyl-6-(cis-4-methylcyclohexyloxy)naphthalene-2-yl)methyl)-azetidine-3-acetic acid] | ≤ 500 nM
22 | CCC(c1ccc2c(C(F)(F)F)c(O[C@H]3CC[C@@H](C)CC3)ccc2c1)N1CCC[C@H](CC(=O)O)C1 (stereo partly drawn) [Example 10, 2-((3R)-1-(1-(6-((cis-4-Methylcyclohexyl)oxy)-5-(trifluoromethyl)naphthalen-2-yl)propyl)piperidin-3-yl)acetic acid] | ≤ 100 nM
23 | C[C@H]1CC[C@@H](Oc2ccc3cc(CN4CC(CC(=O)O)C4)ccc3c2C(F)F)CC1 [Example 97, 1-((5-(Difluoromethyl)-6-((cis-4-methylcyclohexyl)oxy)naphthalen-2-yl)methyl)azetidine-3-acetic acid] | ≤ 100 nM
24 | CCC(c1ccc2c(C(F)(F)F)c(O[C@H]3CC[C@@H](C)CC3)ccc2c1)N1CCC[C@@H](CC(=O)O)C1 (stereo partly drawn) [Example 52, 2-((3S)-1-(1-(6-((cis-4-Methylcyclohexyl)oxy)-5-(trifluoromethyl)naphthalen-2-yl)propyl)piperidin-3-yl)acetic acid] | ≤ 100 nM
25 | CC(C)CC(NC1CC(C(=O)O)C1(C)C)c1ccc2c(C(F)(F)F)c(O[C@H]3CC[C@@H](C)CC3)ccc2c1 (relative stereo) [Example 90, 2,2-dimethyl-3-(1-(6-((cis)-4-methylcyclohexyloxy)-5-(trifluoromethyl)naphthalen-2-yl)-3-methylbutylamino)cyclobutanecarboxylic acid] | ≤ 500 nM

From patent publication US9555050B2 (BIOGEN MA INC., priority 2012, dated 2017)
